Reference: patent US8921397B2, “Benzofurane-piperidine compounds” (Hoffmann-La Roche Inc., priority 2011, dated 2014)
pKi: −log10 of the molar value.

Key:
human D2 receptor = human D2 receptor (Homo sapiens (Human), UniProt P14416); experiment: Radioligand binding ([3H]-spiperone) to human D2 receptor, HEK293 EBNA membranes; settings: HEK293 EBNA cells expressing human D2 receptor
Procedure: (§1) HEK293 EBNA cells were transiently transfected with expression plasmids encoding for the human D2 or D3 or for the human 5-HT2A receptor, respectively. The cells were harvested 48 h post-transfection, washed three times with cold PBS and stored at −80° C. prior to use. The pellet was suspended in cold 50 mM Tris-HCl buffer containing 10 mM EDTA (pH 7.4) and was homogenized with a Polytron (Kinematica AG, Basel, Switzerland) for 20-30 sec at 12.000 rpm. After centrifugation at 48.000×g for 30 min at 4° C., the pellet was resuspended in cold 10 mM Tris-HCl buffer containing 0.1 mM EDTA (pH 7.4), homogenized, and centrifuged as above. This pellet was further resuspended in a smaller volume of ice cold 10 mM Tris-HCl buffer containing 0.1 mM EDTA (pH 7.4) and homogenized with a Polytron for 20-30 sec at 12.000 rpm. The protein content of this homogenate was determined with the Bio-Rad (Bradford) Protein Assay (Biorad Laboratories GmbH, München, Germany) according to the instructions of the manufacturer using gamma globulin as the standard. This homogenate was stored at −80° C. in aliquots and thawed immediately prior to use.
(§2) Aliquots of membrane preparations were thawed at RT, resuspended in assay buffer (D2, D3: 50 mM Tris-HCl, 120 mM NaCl, 5 mM MgCl2, 1 mM EDTA, 5 mM KCl, 1.5 mM CaCl2, pH=7.4; 5-HT2A: 50 mM Tris-HCl, 10 mM MgCl2, 1 mM EGTA, pH=7.4), homogenized with a Polytron for 20-30 sec at 12.000 rpm and adjusted to a final concentration of approximately 7.5 μg protein/well (D2, D3) and 15 μg protein/well (5-HT2A), respectively.
(§3) The binding affinity (Ki) of the compounds was determined using radioligand binding.
(§4) Membranes were incubated in a total volume of 200 μl with a fixed concentration of radioligand (final concentration approximately 0.7 nM [^3H]-spiperone for D2, 0.5 nM [^3 H]-spiperone for D3, and 1.1 nM [^3H]-ketanserin for 5-HT2A) and ten concentrations of test compound in ranging between 10 μM-0.1 nM for 1 h at RT. At the end of the incubation, the reaction mixtures were filtered on to unifilter 96-well white microplates with bonded GF/C filters (Packard BioScience, Zürich, Switzerland; preincubated for 1 h in 0.1% polyethylenimine (PEI) in assay buffer) with a Filtermate 196 harvester (Packard BioScience) and washed 3 times with cold assay buffer. The nonspecific binding was determined with equally composed reaction mixtures in the presence of 10 μM unlabelled spiperone. Per well 45 μl of Microscint 40 (Perkin Elmer, Schwerzenbach, Switzerland) was added, plates for sealed, shaken for 20 min and counted for 3 min on a Topcount Microplate Scintillation Counter (Canberra Packard SA, Zürich, Switzerland) with quenching correction.
(§5) The CPM value for each duplicate of a concentration of competing compound was averaged (y1), then the % specific binding was calculated according to the equation (((y1−non-specific)/(total binding−non-specific))×100). Graphs were plotted with the % specific binding using XLfit, a curve-fitting program that iteratively plots the data using Levenberg-Marquardt algorithm. The single site competition analysis equation used was y=A+((B−A)/(1+((x/C)D))), where y is the % specific binding, A is the minimum y, B is the maximum y, C is the IC50, x is the log 10 of the concentration of the competing compound and D is the slope of the curve (the Hill Coefficient). From these curves the IC50 (inhibition concentration at which 50% specific binding of the radioligand was displaced) and Hill coefficient were determined. The affinity constant (Ki) was calculated using the Cheng-Prusoff equation Ki=(IC50/1+([L]/Kd), where [L] is the concentration of radioligand and Kd is the dissociation constant of the radioligand at the receptor as determined by the saturation isotherm.

human D3 receptor = human D3 receptor (Homo sapiens (Human), UniProt P35462); experiment: Radioligand binding ([3H]-spiperone) to human D3 receptor, HEK293 EBNA membranes; settings: HEK293 EBNA cells expressing human D3 receptor
Procedure: as §1, §2, §3, §4, §5

human 5-HT2A receptor = human 5-HT2A receptor (Homo sapiens (Human), UniProt P28223); experiment: Radioligand binding ([3H]-ketanserin) to human 5-HT2A receptor, HEK293 EBNA membranes; settings: HEK293 EBNA cells expressing human 5-HT2A receptor
Procedure: The ability of the compounds to bind to the 5-HT2A, D3 and D2 receptors was determined using radioligand binding to cloned receptors selectively expressed in HEK-293 EBNA cells.
as §1, §2, §3, §4, §5

Sequence of human D2 receptor (P14416 whole entry): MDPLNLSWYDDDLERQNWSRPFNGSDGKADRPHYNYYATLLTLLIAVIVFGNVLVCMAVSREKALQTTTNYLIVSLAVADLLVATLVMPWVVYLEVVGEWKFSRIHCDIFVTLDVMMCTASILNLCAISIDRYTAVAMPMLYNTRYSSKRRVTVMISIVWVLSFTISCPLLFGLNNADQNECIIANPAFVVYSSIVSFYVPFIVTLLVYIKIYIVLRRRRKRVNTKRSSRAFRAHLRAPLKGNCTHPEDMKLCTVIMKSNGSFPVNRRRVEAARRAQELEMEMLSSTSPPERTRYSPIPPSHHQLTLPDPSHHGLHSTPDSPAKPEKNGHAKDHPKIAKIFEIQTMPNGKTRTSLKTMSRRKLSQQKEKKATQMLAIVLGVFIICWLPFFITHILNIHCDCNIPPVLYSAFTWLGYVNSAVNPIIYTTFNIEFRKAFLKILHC
Sequence of human D3 receptor (P35462 whole entry): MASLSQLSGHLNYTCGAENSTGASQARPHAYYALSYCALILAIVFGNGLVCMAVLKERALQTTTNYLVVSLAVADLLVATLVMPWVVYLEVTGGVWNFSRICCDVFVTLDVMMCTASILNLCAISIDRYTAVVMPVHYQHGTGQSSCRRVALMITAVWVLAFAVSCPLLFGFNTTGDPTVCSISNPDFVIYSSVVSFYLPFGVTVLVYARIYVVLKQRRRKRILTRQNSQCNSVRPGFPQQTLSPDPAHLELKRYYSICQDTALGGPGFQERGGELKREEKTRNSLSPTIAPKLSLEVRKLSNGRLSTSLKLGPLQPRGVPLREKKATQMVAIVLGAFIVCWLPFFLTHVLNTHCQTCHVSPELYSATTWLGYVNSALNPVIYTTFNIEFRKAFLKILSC
Sequence of human 5-HT2A receptor (P28223 whole entry): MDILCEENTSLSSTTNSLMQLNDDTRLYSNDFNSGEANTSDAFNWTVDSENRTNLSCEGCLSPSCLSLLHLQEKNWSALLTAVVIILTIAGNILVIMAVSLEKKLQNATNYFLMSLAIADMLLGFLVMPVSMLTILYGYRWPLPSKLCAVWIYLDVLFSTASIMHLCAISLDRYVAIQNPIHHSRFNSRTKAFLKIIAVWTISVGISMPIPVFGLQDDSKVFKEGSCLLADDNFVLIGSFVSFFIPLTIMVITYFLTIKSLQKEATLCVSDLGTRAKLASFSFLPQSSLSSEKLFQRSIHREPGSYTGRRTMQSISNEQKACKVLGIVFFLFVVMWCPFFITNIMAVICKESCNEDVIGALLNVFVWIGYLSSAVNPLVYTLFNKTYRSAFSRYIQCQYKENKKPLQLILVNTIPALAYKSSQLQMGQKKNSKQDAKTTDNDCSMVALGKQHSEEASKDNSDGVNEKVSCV

Compound	pKi (human D2 receptor)	pKi (human D3 receptor)	pKi (human 5-HT2A receptor)	melting point
Cc1cc(C(=O)N[C@H]2CC[C@H](CCN3CCC(c4coc5ccccc45)CC3)CC2)on1 [Example 41, 3-Methyl-isoxazole-5-carboxylic acid trans-{4-[2-(4-benzofuran-3-yl-piperidin-1-yl)-ethyl]-cyclohexyl}-amide]	7.44	8.37	8.04	178 °C
CN(C)C(=O)CCC(=O)N[C@H]1CC[C@H](CCN2CCC(c3coc4ccccc34)CC2)CC1 [Example 42, trans-N-{4-[2-(4-Benzofuran-3-yl-piperidin-1-yl)-ethyl]-cyclohexyl}-N′,N′-dimethyl-succinamide]	7.03	8.61	8.11	167 °C
CN(C)S(=O)(=O)N[C@H]1CC[C@H](CCN2CCC(c3coc4ccccc34)CC2)CC1 [Example 43, N′-(trans-4-{2-[4-(benzofuran-3-yl)-piperidin-1-yl]-ethyl}-cyclohexyl)-N,N-dimethylsulfamide]	7.33	8.52	8.36	229 °C
O=C(CCC(F)(F)F)N[C@H]1CC[C@H](CCN2CCC(c3coc4ccccc34)CC2)CC1 [Example 44, trans-N-{4-[2-(4-Benzofuran-3-yl-piperidin-1-yl)-ethyl]-cyclohexyl}-4,4,4-trifluoro-butyramide]	7.21	8.53	7.83	192 °C
CC(C)CCC(=O)N[C@H]1CC[C@H](CCN2CCC(c3coc4ccccc34)CC2)CC1 [Example 45, 4-Methyl-pentanoic acid trans-{4-[2-(4-benzofuran-3-yl-piperidin-1-yl)-ethyl]-cyclohexyl}-amide]	7.18	8.54	7.88	179 °C
CC[C@@H](O)CC(=O)N[C@H]1CC[C@H](CCN2CCC(c3coc4ccccc34)CC2)CC1 [Example 46, (R)-3-Hydroxy-pentanoic acid trans-{4-[2-(4-benzofuran-3-yl-piperidin-1-yl)-ethyl]-cyclohexyl}-amide]	7.26	8.60	8.06	142 °C
CC[C@H](O)CC(=O)N[C@H]1CC[C@H](CCN2CCC(c3coc4ccccc34)CC2)CC1 [Example 47, (S)-3-Hydroxy-pentanoic acid trans-{4-[2-(4-benzofuran-3-yl-piperidin-1-yl)-ethyl]-cyclohexyl}-amide]	7.47	8.65	8.04	140 °C
O=C(CC1CCC1)N[C@H]1CC[C@H](CCN2CCC(c3coc4ccccc34)CC2)CC1 [Example 48, trans-N-{4-[2-(4-Benzofuran-3-yl-piperidin-1-yl)-ethyl]-cyclohexyl}-2-cyclobutyl-acetamide]	7.23	8.69	8.31	173 °C
O=C(N[C@H]1CC[C@H](CCN2CCC(c3coc4ccccc34)CC2)CC1)c1ccc(Cl)cc1 [Example 49, trans-N-{4-[2-(4-Benzofuran-3-yl-piperidin-1-yl)-ethyl]-cyclohexyl}-4-chloro-benzamide]	7.59	8.49	8.05	203 °C
O=C(N[C@H]1CC[C@H](CCN2CCC(c3coc4ccccc34)CC2)CC1)c1ccc(C(F)(F)F)cc1 [Example 50, trans-N-{4-[2-(4-Benzofuran-3-yl-piperidin-1-yl)-ethyl]-cyclohexyl}-4-trifluoromethyl-benzamide]	6.82	8.66	8.32	218 °C
O=C(N[C@H]1CC[C@H](CCN2CCC(c3coc4ccccc34)CC2)CC1)c1ccc(N2CCCCC2)cc1 [Example 51, trans-N-{4-[2-(4-Benzofuran-3-yl-piperidin-1-yl)-ethyl]-cyclohexyl}-4-piperidin-1-yl-benzamide]	6.46	8.36	8.16	221 °C
COC(CC(=O)N[C@H]1CC[C@H](CCN2CCC(c3coc4ccccc34)CC2)CC1)OC [Example 52, trans-N-{4-[2-(4-Benzofuran-3-yl-piperidin-1-yl)-ethyl]-cyclohexyl}-3,3-dimethoxy-propionamide]	7.31	8.84	8.23	148 °C
CC(C)=CC(=O)N[C@H]1CC[C@H](CCN2CCC(c3coc4ccccc34)CC2)CC1 [Example 53, 3-Methyl-but-2-enoic acid trans-{4-[2-(4-benzofuran-3-yl-piperidin-1-yl)-ethyl]-cyclohexyl}-amide]	7.74	8.55	8.01	147 °C
C/C=C/CC(=O)N[C@H]1CC[C@H](CCN2CCC(c3coc4ccccc34)CC2)CC1 [Example 54, (E)-Pent-3-enoic acid trans-{4-[2-(4-benzofuran-3-yl-piperidin-1-yl)-ethyl]-cyclohexyl}-amide]	7.24	8.74	7.91	165 °C
CC#CC(=O)N[C@H]1CC[C@H](CCN2CCC(c3coc4ccccc34)CC2)CC1 [Example 55, But-2-ynoic acid trans-{4-[2-(4-benzofuran-3-yl-piperidin-1-yl)-ethyl]-cyclohexyl}-amide]	7.59	8.68	8.10	161 °C
O=CN[C@H]1CC[C@H](CCN2CCC(c3coc4ccccc34)CC2)CC1 [Example 56, trans-N-{4-[2-(4-Benzofuran-3-yl-piperidin-1-yl)-ethyl]-cyclohexyl}-formamide]	7.41	8.57	7.87	155 °C
CCCCC(=O)N[C@H]1CC[C@H](CCN2CCC(c3coc4ccccc34)CC2)CC1 [Example 57, Pentanoic acid trans-{4-[2-(4-benzofuran-3-yl-piperidin-1-yl)-ethyl]-cyclohexyl}-amide]	7.18	8.66	7.88	167 °C
O=C(N[C@H]1CC[C@H](CCN2CCC(c3coc4ccccc34)CC2)CC1)c1ccc2c(c1)OCO2 [Example 58, Benzo[1,3]dioxole-5-carboxylic acid trans-{4-[2-(4-benzofuran-3-yl-piperidin-1-yl)-ethyl]-cyclohexyl}-amide]	7.54	8.55	8.06	198 °C
O=C(N[C@H]1CC[C@H](CCN2CCC(c3coc4ccccc34)CC2)CC1)c1ccc(-n2cccn2)cc1 [Example 59, trans-N-[4-{2-(4-Benzofuran-3-yl-piperidin-1-yl)-ethyl]-cyclohexyl}-4-pyrazol-1-yl-benzamide]	7.33	8.24	7.65	205 °C
CC(C)(C)c1ccc(C(=O)N[C@H]2CC[C@H](CCN3CCC(c4coc5ccccc45)CC3)CC2)cc1 [Example 60, trans-N-{4-[2-(4-Benzofuran-3-yl-piperidin-1-yl)-ethyl]-cyclohexyl}-4-tert-butyl-benzamide]	5.95	8.00	8.42	180 °C
